In patent US20200308165A1, “Compounds as Ras Inhibitors and Use Thereof” (D.E. Shaw Research, LLC, priority 2017, published 2020) one finds IC50 data, which are given here for 24 compounds.

One assay deals with Ras protein (Homo sapiens, UniProt P01116). The assay is described as follows: GDPx_Icagen_IC50: SOS1-mediated guanine nucleotide exchange rate of Ras (mant-GDP). It is filed as biochemical. The following applies: SOS1-initiated exchange.
From the text: (§1) In some embodiments, the IC50 assay measures the reduction effect of a given compound on the guanine nucleotide-echange rate of Ras protein in the presence of guanine nucleotide exchange protein SOS1, which is a Ras activator. In the assay GDP-loaded Ras was first prepared in a buffer containing the compound at certain concentration and fluorescent guanine nucleotide (mant-GDP (used in Icagene assay) or mant-GTP (used in other IC50 assays). The guanine nucleotide exchange was initiated by the addition of the SOS1 and its rate was reflected in the rate of fluorescence change as a function of time, which was monitored by a reader. The experiment was repeated at different compound concentrations and the IC50 of the compound was defined as the compound concentration at which half of its maximal reduction effect on the guanine nucleotide exchange rate is achieved. In other embodiments, other Ras activator proteins may be used. Non-limiting examples of other Ras activator proteins include RasGRP (Ras guanyl-releasing protein).
Example 17. Evaluation of Biological Activities: GDPx_Icagen_ICso
as §1, with “The IC50” for “In some embodiments, the IC50”, “guanine nucleotide-exchange” for “guanine nucleotide-echange”, “Ras is” for “Ras was”, “nucleotide (mant-GDP).” for “nucleotide (mant-GDP (used in Icagene assay) or mant-GTP (used in other IC50 assays).”, “achieved.” for “achieved. In other embodiments, other Ras activator proteins may be used. Non-limiting examples of other Ras activator proteins include RasGRP (Ras guanyl-releasing protein).”

A further assay concerns the target T1, KRAS4B (wild type) (Homo sapiens, UniProt P01116).
T1 construct: purchased Cytoskeleton CS-RS03 (K-Ras4B); CS-SOS1-A (SOS1)
The assay is described as follows: K-Ras Nucleotide Exchange Assay-384 (SOS Exchange Assay by Cytoskeleton, GTPx_Cyt_IC50). The note with it: 1 μM KRAS4B, 0.05 μM SOS1, 1.5 μM mant-GDP. It is filed as biochemical. The method, then: Example 16. Evaluation of Biological Activities: K-Ras Nucleotide Exchange Assay-384 (SOS Exchange Assay by Cytoskeleton (GTPx_Cyt_IC50))
This assay is used to evaluate inhibitors of K-ras, by monitoring the inhibition of nucleotide exchange over time, in the presence of the protein SOS.
384-well black, untreated plates (Corning 3820 with NBS or 3821 untreated) were used. K-Ras4B Protein was used, which is wild-type (Cytoskeleton #CS-RS03) with a concnetration of 5 mg/ml, or 200 μM. Human SOS1 Protein, Exchange Domain 564-1049 (Cytoskeleton # CS-SOS1-A) was used in a concentration of 3.03 mg/ml or 50 μM. Mant-GDP triethylammonium salt solution was purchased from Sigma (catalog No. 69244). 1M stock solution of Hepes was purchased from Sigma (catalog No. H9897). 1M stock solution of MgCl2 was purchased from Sigma (catalog No. M4880). CHAPS, 3% was purchased from Sigma (catalog No. C5070). Nonidet P40 was purchased from Sigma. KOH pellets were purchased from Sigma.
K-ras buffer containing 40 mM Hepes, 10 mM MgCl2, 0.05% CHAPS, 0.01% NP40 with a pH 7.5 was prepared as follows: to a Buffer base containing 4 ml 1M Hepes, 1 ml MgCl2,
93.3 ml d-H2O, pH 7.5 (with KOH pellets), 1.7 ml 3% CHAPS was added, followed by the addition of 1 ml 1% NP40.
Final Conditions of the method included 1 μM KRAS4B (wild type), 0.05 μM SOS1, 1.5 μM mant-GDP. Reagent Preparation included: thawing aliquots of KRAS, SOS, and mant-GDP; preparing 3x KRAS (3 uM) in assay buffer; preparing 3x SOS/mant-GDP (150 nM/4.5 uM) in assay buffer; and preparing 3x compounds in assay buffer.
Assay Procedure (1536) used 3.3 μl, 3x Kras, 3.3 μl 3x compound with preincubate 0 hour, and […] 3x SOS/mant-GDP. A kinetic read measuring fluorescence at 360_450 was performed for 30 min at 30 second intervals.
Reference compound SCH 54292 (reversible inhibitor) at about 100 μM was used with no preincubation. Reagents were only stable for 45 min on ice, and therefore were prepared fresh before each assay. Partial plates (up to 9 columns) were run at a time to minimize effects due to the amount of time it takes to read a whole plate. SOS/mant-GDP were added with an automated pipettor to initiate all reactions at the same time. Assay was typically performed at 0.5% solution in DMSO (compounds prepared in 1.5% DMSO initially).
Clariostar Settings were as follows. Test Name was Kras Kinetic 360-450. Basic settings of the test included Measurement type as Fluorescence (FI), and Microplate name as Corning 3820. Plate mode settings included 61 cycles, 30 second cycle time, and 10 flashes per well. Optic settings were as follows. Excitation wavelength was 360 nm. Emission wavelength was 450 nM. Excitation bandwidth was 12 nm. Emission bandwidth was 12 nm. Dichroic filter 405 was used. D6 Well(s) was used for gain adjustment. No shaking was used. General settings were as follows. Top optic was used. Settling time was 0.1 second. Reading direction was bidirectional, horizontal left to right, and bottom to top. The target temperature was 25° C.

T1 sequence (P01116 1-188 isoform P01116-2): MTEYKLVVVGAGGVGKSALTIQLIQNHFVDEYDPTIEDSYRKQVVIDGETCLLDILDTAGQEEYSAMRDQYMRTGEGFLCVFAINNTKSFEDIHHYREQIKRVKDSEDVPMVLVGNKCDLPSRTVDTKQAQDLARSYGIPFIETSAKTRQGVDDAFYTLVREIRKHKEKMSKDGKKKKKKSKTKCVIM
Ras protein, sequence (P01116 1-188 isoform P01116-2): as above

As to `CN1CCN(Cc2ccc(SCc3cc(=O)n(-c4nc5ccccc5[nH]4)[nH]3)cc2)CC1` [Compound 163, 2-(1H-benzo[d]imidazol-2-yl)-5-(((4-((4-methylpiperazin-1-yl)methyl)phenyl)thio)methyl)-1,2-dihydro-3H-pyrazol-3-one], the IC50 against Ras protein was 500 nM; at KRAS4B (wild type), 1000 nM.
For the compound `O=c1cc(COc2ccccc2)[nH]n1-c1nc2ccccc2[nH]1` [Compound145, 2-(1H-benzo[d]imidazol-2-yl)-5-(phenoxymethyl)-1,2-dihydro-3H-pyrazol-3-one], the IC50 at Ras protein stood at 800 nM; against KRAS4B (wild type), 3900 nM.
With `O=c1cc(CSc2ccc(Cl)cc2)[nH]n1-c1nc2ccccc2[nH]1` [Compound 183, 2-(1H-benzo[d]imidazol-2-yl)-5-(((4-chlorophenyl)thio)methyl)-1,2-dihydro-3H-pyrazol-3-one], the values for the IC50 at Ras protein and against KRAS4B (wild type) were 200 nM and 300000 nM, respectively.
In the case of `O=c1cc(CSc2ccccc2)[nH]n1-c1cc(Br)ccn1` [Compound 176, 2-(4-bromopyridin-2-yl)-5-((phenylthio)methyl)-1,2-dihydro-3H-pyrazol-3-one], the half-inhibitory concentration (IC50) against Ras protein came to 6000 nM.
The compound `O=c1cc(CSc2cc(Cl)cc(Cl)c2)[nH]n1-c1nc2ccccc2[nH]1` [Compound 175, 2-(1H-benzo[d]imidazol-2-yl)-5-(((3,5-dichlorophenyl)thio)methyl)-1,2-dihydro-3H-pyrazol-3-one] displayed an IC50 on Ras protein of 63 nM.
Take `Cc1csc(SCc2cc(=O)n(-c3nc4ccccc4[nH]3)[nH]2)n1` [Compound 152, 2-(1H-benzo[d]imidazol-2-yl)-5-(((4-methylthiazol-2-yl)thio)methyl)-1,2-dihydro-3H-pyrazol-3-one]: the IC50 came out at 600 nM against Ras protein and 610 nM against KRAS4B (wild type).
The corresponding values for `Cn1c(-n2[nH]c(CSc3ccccc3)cc2=O)nc2ccccc21` [Compound 170, 2-(1-methyl-1H-benzo[d]imidazol-2-yl)-5-((phenylthio)methyl)-1,2-dihydro-3H-pyrazol-3-one] are 11900 nM and 6100 nM.
In the case of `O=c1cc(CSc2nc(Cc3ccccc3)cs2)[nH]n1-c1nc2ccccc2[nH]1` [Compound 180, 2-(1H-benzo[d]imidazol-2-yl)-5-(((4-benzylthiazol-2-yl)thio)methyl)-1,2-dihydro-3H-pyrazol-3-one], at Ras protein, half-maximal inhibition (IC50) required 200 nM.
For the compound `Cc1cc(C)nc(SCc2cc(=O)n(-c3ccccn3)n2C)n1` [Compound 165, 5-(((4,6-dimethylpyrimidin-2-yl)thio)methyl)-1-methyl-2-(pyridin-2-yl)-1,2-dihydro-3H-pyrazol-3-one], the IC50 on Ras protein stood at 200000 nM; on KRAS4B (wild type) it was 300000 nM.
Regarding `Cc1c(CSc2ccccc2)[nH]n(-c2nc3ccccc3[nH]2)c1=O` [Compound 141, 2-(1H-benzo[d]imidazol-2-yl)-4-methyl-5-((phenylthio)methyl)-1H-pyrazol-3(2H)-one], the 50% inhibitory concentration (IC50) worked out at 770 nM on Ras protein and 100000 nM on KRAS4B (wild type).
In the same order, the values of `Cc1ccc(-n2[nH]c(CSc3ccccc3)cc2=O)nc1` [Compound 140, 2-(5-methylpyridin-2-yl)-5-((phenylthio)methyl)-1H-pyrazol-3(2H)-one] are 1600 nM and 30800 nM.
In the same order, the values of `Cc1cc(C)nc(SCc2cc(=O)n(-c3ccccn3)[nH]2)n1` [Compound 143, 5-(((4,6-dimethylpyrimidin-2-yl)thio)methyl)-2-(pyridin-2-yl)-1,2-dihydro-3H-pyrazol-3-one] are 2100 nM and 5400 nM.
The corresponding values for `O=c1cc(CSc2ccccn2)[nH]n1-c1nc2ccccc2s1` [Compound 185, 2-(benzo[d]thiazol-2-yl)-5-((pyridin-2-ylthio)methyl)-1,2-dihydro-3H-pyrazol-3-one] are 5900 nM and 340000 nM.
As to `Cc1csc(SCc2cc(=O)n(-c3ccccn3)[nH]2)n1` [Compound 182, 5-(((4-methylthiazol-2-yl)thio)methyl)-2-(pyridin-2-yl)-1,2-dihydro-3H-pyrazol-3-one], at Ras protein, 3200 nM corresponded to half-maximal inhibition (IC50).
On to `O=c1cc(CSc2ccccn2)[nH]n1-c1nc2ccccc2[nH]1` [Compound 142, 2-(1H-benzo[d]imidazol-2-yl)-5-((pyridin-2-ylthio)methyl)-1H-pyrazol-3(2H)-one], for which the figures for the half-maximal inhibitory concentration (IC50) against Ras protein and on KRAS4B (wild type) were 170 nM and 1200 nM, respectively.
In turn, `O=c1cc(CSCc2ccc(F)cc2)[nH]n1-c1ccccn1` [Compound 161, 5-(((4-fluorobenzyl)thio)methyl)-2-(pyridin-2-yl)-1,2-dihydro-3H-pyrazol-3-one] came in with an IC50 against KRAS4B (wild type) of 2700 nM.
In turn, `CCc1csc(SCc2cc(=O)n(-c3nc4ccccc4[nH]3)[nH]2)n1` [Compound 139, 2-(1H-benzo[d]imidazol-2-yl)-5-(((4-ethylthiazol-2-yl)thio)methyl)-1H-pyrazol-3(2H)-one] yielded a 50% inhibitory concentration (IC50) against Ras protein of 50 nM.
In turn, `Cc1cc(C)nc(SCc2cc(=O)n(-c3ccc(C(F)(F)F)cn3)[nH]2)n1` [Compound 157, 5-(((4,6-dimethylpyrimidin-2-yl)thio)methyl)-2-(5-(trifluoromethyl)pyridin-2-yl)-1,2-dihydro-3H-pyrazol-3-one] returned an IC50 against KRAS4B (wild type) of 17600 nM.
Regarding `NC(=O)c1ccc(SCc2cc(=O)n(-c3nc4ccccc4[nH]3)[nH]2)cc1` [Compound 178, 4-(((1-(1H-benzo[d]imidazol-2-yl)-5-oxo-2,5-dihydro-1H-pyrazol-3-yl)methyl)thio)benzamide], the IC50 against Ras protein was 320 nM.
In the case of `O=c1cc(CSc2ccccc2)[nH]n1-c1ncc[nH]1` [Compound 179, 2-(1H-imidazol-2-yl)-5-((phenylthio)methyl)-1,2-dihydro-3H-pyrazol-3-one], 4500 nM corresponded to half-maximal inhibition against Ras protein (IC50).
In the case of `Cc1cc(C)nc(SCc2cc(=O)n(-c3nc4ccc(Br)cc4s3)[nH]2)n1` [Compound 155, 2-(6-bromobenzo[d]thiazol-2-yl)-5-(((4,6-dimethylpyrimidin-2-yl)thio)methyl)-1,2-dihydro-3H-pyrazol-3-one], the half-inhibitory concentration (IC50) against KRAS4B (wild type) was determined as 12800 nM.
With `O=c1cc(CSc2nc3cccnc3s2)[nH]n1-c1nc2ccccc2[nH]1` [Compound 177, 2-(1H-benzo[d]imidazol-2-yl)-5-((thiazolo[5,4-b]pyridin-2-ylthio)methyl)-1,2-dihydro-3H-pyrazol-3-one], it took 400 nM to reach half-maximal inhibition against Ras protein (IC50).
Consider `O=c1cc(CSc2ccc(Br)cn2)[nH]n1-c1ccccn1` [Compound 160, 5-(((5-bromopyridin-2-yl)thio)methyl)-2-(pyridin-2-yl)-1,2-dihydro-3H-pyrazol-3-one], for which the IC50 at KRAS4B (wild type) came to 7400 nM.
As to `O=c1cc(CSc2cccnc2)[nH]n1-c1nc2ccccc2[nH]1` [Compound 181, 2-(1H-benzo[d]imidazol-2-yl)-5-((pyridin-3-ylthio)methyl)-1,2-dihydro-3H-pyrazol-3-one], the IC50 against Ras protein was found to be 2500 nM.

For orientation: IC50 means the point on the concentration scale where inhibition reaches its midpoint.
